Laboratory results from the NIST ThermoML archive (doi:10.1016/j.jct.2019.02.012).
Numbers after ± are expanded uncertainties.

Test: mn = molality of the nth substance listed, in mol/kg
Settings: 100 kPa, Liquid, Pycnometric method

O=C(O)[C@@H]1CCCN1 [L-proline] + O
mass density (298.15 K, m1 = 0.025): 997.86 ± 0.47 kg/m3 | mass density (298.15 K, m1 = 0.05): 998.65 ± 0.47 kg/m3 | mass density (298.15 K, m1 = 0.075): 999.43 ± 0.47 kg/m3 | mass density (298.15 K, m1 = 0.1): 1000.2 ± 0.47 kg/m3 | mass density (298.15 K, m1 = 0.125): 1000.96 ± 0.48 kg/m3 | mass density (303.15 K, m1 = 0.025): 996.45 ± 0.48 kg/m3 | mass density (303.15 K, m1 = 0.05): 997.24 ± 0.48 kg/m3 | mass density (303.15 K, m1 = 0.075): 998.01 ± 0.48 kg/m3 | mass density (303.15 K, m1 = 0.1): 998.77 ± 0.49 kg/m3 | mass density (303.15 K, m1 = 0.125): 999.52 ± 0.49 kg/m3 | mass density (308.15 K, m1 = 0.025): 994.82 ± 0.49 kg/m3 | mass density (308.15 K, m1 = 0.05): 995.6 ± 0.49 kg/m3 | mass density (308.15 K, m1 = 0.075): 996.37 ± 0.5 kg/m3 | mass density (308.15 K, m1 = 0.1): 997.12 ± 0.5 kg/m3 | mass density (308.15 K, m1 = 0.125): 997.86 ± 0.5 kg/m3 | mass density (313.15 K, m1 = 0.025): 992.99 ± 0.5 kg/m3 | mass density (313.15 K, m1 = 0.05): 993.77 ± 0.5 kg/m3 | mass density (313.15 K, m1 = 0.075): 994.53 ± 0.51 kg/m3 | mass density (313.15 K, m1 = 0.1): 995.28 ± 0.51 kg/m3 | mass density (313.15 K, m1 = 0.125): 996.01 ± 0.52 kg/m3 | mass density (318.15 K, m1 = 0.025): 991.02 ± 0.51 kg/m3 | mass density (318.15 K, m1 = 0.05): 991.79 ± 0.51 kg/m3 | mass density (318.15 K, m1 = 0.075): 992.55 ± 0.51 kg/m3 | mass density (318.15 K, m1 = 0.1): 993.29 ± 0.52 kg/m3 | mass density (318.15 K, m1 = 0.125): 994.02 ± 0.53 kg/m3

CN(C)C(=N)NC(=N)N.Cl [N,N-dimethylimidodicarbonimidic diamide hydrochloride] + O
mass density (298.15 K, m1 = 0.05): 998.89 ± 0.48 kg/m3 | mass density (298.15 K, m1 = 0.1): 1000.77 ± 0.48 kg/m3 | mass density (298.15 K, m1 = 0.15): 1002.66 ± 0.48 kg/m3 | mass density (298.15 K, m1 = 0.2): 1004.6 ± 0.48 kg/m3 | mass density (303.15 K, m1 = 0.05): 997.46 ± 0.49 kg/m3 | mass density (303.15 K, m1 = 0.1): 999.32 ± 0.49 kg/m3 | mass density (303.15 K, m1 = 0.15): 1001.21 ± 0.49 kg/m3 | mass density (303.15 K, m1 = 0.2): 1003.12 ± 0.49 kg/m3 | mass density (308.15 K, m1 = 0.05): 995.83 ± 0.5 kg/m3 | mass density (308.15 K, m1 = 0.1): 997.67 ± 0.5 kg/m3 | mass density (308.15 K, m1 = 0.15): 999.56 ± 0.5 kg/m3 | mass density (308.15 K, m1 = 0.2): 1001.46 ± 0.5 kg/m3 | mass density (313.15 K, m1 = 0.05): 993.99 ± 0.5 kg/m3 | mass density (313.15 K, m1 = 0.1): 995.82 ± 0.51 kg/m3 | mass density (313.15 K, m1 = 0.15): 997.69 ± 0.51 kg/m3 | mass density (313.15 K, m1 = 0.2): 999.59 ± 0.51 kg/m3 | mass density (318.15 K, m1 = 0.05): 992.01 ± 0.51 kg/m3 | mass density (318.15 K, m1 = 0.1): 993.83 ± 0.52 kg/m3 | mass density (318.15 K, m1 = 0.15): 995.69 ± 0.52 kg/m3 | mass density (318.15 K, m1 = 0.2): 997.6 ± 0.52 kg/m3
